Test results published in article PMC8689225, “Cardiac ryanodine receptor N-terminal region biosensors identify novel inhibitors via FRET-based high-throughput screening” (The Journal of Biological Chemistry, 2021).

Assays:
RyR2 = target: T1, RyR2 (Sus scrofa, UniProt A0A5G2R1W3); test: [3H]ryanodine binding to cardiac SR (CSR) vesicles; type: biochemical, pig
T1 construct: from tissue; host or cells: porcine cardiac left ventricle, crude SR vesicles
Procedure: Crude sarcoplasmic reticulum membrane vesicles were isolated from porcine longissimus dorsi muscle and porcine cardiac left ventricle tissue by differential centrifugation of homogenized tissue, as established previously ([65]). Skeletal heavy SR (HSR) vesicles, which are enriched with RyR1, were isolated by fractionation of crude skeletal SR vesicles using a discontinuous sucrose gradient, in accordance with our published work ([65]). All vesicles were flash-frozen and stored at −80 °C.
In 96-well plates, skeletal SR membranes (HSR, 1 mg/ml) and cardiac SR membranes (CSR, 3 mg/ml) were preincubated with 1% DMSO or hit compound for 30 min at 22 °C in a solution containing 150 mM KCl, 5 mM GSH, 1 μg/ml Aprotinin/Leupeptin, 1 mM EGTA, and 65 μM or 1.02 mM CaCl2 (as determined by MaxChelator to yield 30 nM or 30 μM of free Ca^2+, respectively), 0.1 mg/ml of BSA, and 20 mM K-PIPES (pH 7.0). Nonspecific [^3H]ryanodine binding to SR was assessed by addition of 40 μM nonradioactively labeled ryanodine. Maximal [^3H]ryanodine binding was assessed by addition of 5 mM adenylyl-imidodiphosphate (AMP-PNP), and in the case of CSR, 20 mM caffeine was added. These control samples were each loaded over four wells per plate. Binding of [^3H]ryanodine (7.5 and 10 nM for CSR and HSR, respectively) was determined following a 3 h incubation at 37 °C and filtration through grade GF/B glass microfiber filters (Brandel Inc) using a Brandel Harvester. In 4 ml of Ecolite scintillation cocktail (MP biomedicals), [^3H]ryanodine retained on the filter was counted using a Beckman LS6000 scintillation counter.

mouse RyR2 NTR = target: T2, mouse RyR2 NTR (Mus musculus, UniProt E9Q401, K30C/K441C, form not given); test: FLT-FRET dose-response with AC-NTR biosensor; type: binding; conditions: AC-NTR biosensor
T2 sequence (E9Q401 1-547 K30C/K441C): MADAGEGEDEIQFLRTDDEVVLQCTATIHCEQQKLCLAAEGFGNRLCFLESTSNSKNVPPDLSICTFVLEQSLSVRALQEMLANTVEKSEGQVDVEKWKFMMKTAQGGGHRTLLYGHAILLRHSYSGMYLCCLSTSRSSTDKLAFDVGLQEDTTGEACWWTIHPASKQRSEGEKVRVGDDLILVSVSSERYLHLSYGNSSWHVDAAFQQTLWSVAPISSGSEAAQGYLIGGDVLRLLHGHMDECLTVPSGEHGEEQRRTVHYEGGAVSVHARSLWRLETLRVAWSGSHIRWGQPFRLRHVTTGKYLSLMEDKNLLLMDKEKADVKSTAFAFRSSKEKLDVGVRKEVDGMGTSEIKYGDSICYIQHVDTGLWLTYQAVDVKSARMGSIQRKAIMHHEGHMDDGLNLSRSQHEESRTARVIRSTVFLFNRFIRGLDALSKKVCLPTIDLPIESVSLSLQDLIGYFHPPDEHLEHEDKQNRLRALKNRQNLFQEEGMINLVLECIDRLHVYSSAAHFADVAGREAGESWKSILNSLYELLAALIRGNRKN
Excerpt: The NTR of mouse RyR2 (residues 1–547) was cloned and expressed as previously described ([27]). The DNA construct contains a 6×His tag, a maltose-binding protein (MBP) tag, and a tobacco etch virus (TEV) protease cleavage site. The seven native solvent-exposed cysteine residues were substituted with alanine residues, and two constructs were engineered with Cys substitutions at surface residues R383 and K441 (in the B and C domains, respectively; termed BC) and at K30 and K441 (in the A and C domains, respectively; termed AC) for labeling with spectroscopic probes such as appropriate donor–acceptor fluorophores for FRET (for the purpose of this report, these are considered the WT forms of AC and BC). A variant of the BC construct corresponding to the disease-associated mutant (R420Q) was also prepared. For this site-directed mutagenesis work, we used the QuikChange (Stratagene) and Phusion High-Fidelity PCR (Thermo Fisher Scientific) kits. The WT-NTR, R420Q-NTR, AC- and BC-NTR, AC- and BC-R420Q-NTR protein constructs were expressed in Escherichia coli Rosetta (DE3) pLacI cells at 18 °C and purified with a protocol adapted from previously published work ([26]). An amylose column was first applied after the cells were lysed by ultrasonication. The protein in the elution was then cleaved using TEV protease. The cleaved crude protein went through the second amylose column to separate from the MBP and then followed by a Superdex S-200 size exclusion column in a buffer consisting of 250 mM KCl, 10 mM HEPES, and 14 mM β-mercaptoethanol (pH 7.4). The NTR protein (3 μM) was then incubated in 10 mM HEPES, 250 mM KCl (pH 7.4, 2 h, 21 °C) with the fluorescent probes Alexa Fluor 488 maleimide (AF488, donor; 40 μM) and Alexa Fluor 568 maleimide (AF568, acceptor; 60 μM). The maleimide of the dye reacts with the thiols the Cys residues engineered into NTR, forming a covalently labeled protein. The Alexa dyes were added last to the reaction mixture, from 10 mM DMSO stock solutions. This reaction is not selective to one site (K30C or K441C), and we anticipate that there is a mixed population with K30C or K441C labeled with either AF488 (donor) or AF568 (acceptor). We focused on maximizing the fraction containing donor–acceptor pairs, thus maximizing FRET efficiency and the precision for detecting a change in structure as an indication that a compound interacts with the NTR biosensor. The labeling efficiency was determined by comparing the molar concentration of the bound dye, determined from UV-Vis absorbance, to the protein concentration, determined from gel densitometry. Essentially complete labeling was confirmed from electrospray ionization mass spectrometry. CD spectra of the WT-NTR and mutant R420Q-NTR constructs before and after labeling were recorded using a JASCO J-815 CD spectrometer (JASCO), confirming similar folding (Fig. S1).
The 1536-well assay plates were prepared as described in our previous reports ([21]). The LOPAC (Sigma-Aldrich) collection received in 96-well plates was reformatted into 384-well polypropylene intermediate plates (Greiner Bio-One) using a multichannel liquid handler, BioMek FX (Beckman Coulter), then transferred to 384-well Echo Qualified source plates (Labcyte Inc). Assay plates were prepared as previously described ([20]). On screening days, these plates were thawed out and were loaded with labeled NTR (5 μl, 20 nM final concentration) using a Multidrop Combi automated sample dispenser.
HTS measurements were conducted in a prototype top-read FLT plate reader (FLT-PR, Fluorescence Innovations, Inc), which reads each 1536-well plate in ∼3 min ([63], [64]). AF488 donor fluorescence was excited with a 473 nm microchip laser from Concepts Research Corporation, and the emission signal was split into two channels by a dichroic mirror and acquired with 517 ± 10 nm (channel 1) and 535 ± 7 nm band-pass filters (channel 2) (Semrock). […]

T1 sequence (A0A5G2R1W3 20-4900): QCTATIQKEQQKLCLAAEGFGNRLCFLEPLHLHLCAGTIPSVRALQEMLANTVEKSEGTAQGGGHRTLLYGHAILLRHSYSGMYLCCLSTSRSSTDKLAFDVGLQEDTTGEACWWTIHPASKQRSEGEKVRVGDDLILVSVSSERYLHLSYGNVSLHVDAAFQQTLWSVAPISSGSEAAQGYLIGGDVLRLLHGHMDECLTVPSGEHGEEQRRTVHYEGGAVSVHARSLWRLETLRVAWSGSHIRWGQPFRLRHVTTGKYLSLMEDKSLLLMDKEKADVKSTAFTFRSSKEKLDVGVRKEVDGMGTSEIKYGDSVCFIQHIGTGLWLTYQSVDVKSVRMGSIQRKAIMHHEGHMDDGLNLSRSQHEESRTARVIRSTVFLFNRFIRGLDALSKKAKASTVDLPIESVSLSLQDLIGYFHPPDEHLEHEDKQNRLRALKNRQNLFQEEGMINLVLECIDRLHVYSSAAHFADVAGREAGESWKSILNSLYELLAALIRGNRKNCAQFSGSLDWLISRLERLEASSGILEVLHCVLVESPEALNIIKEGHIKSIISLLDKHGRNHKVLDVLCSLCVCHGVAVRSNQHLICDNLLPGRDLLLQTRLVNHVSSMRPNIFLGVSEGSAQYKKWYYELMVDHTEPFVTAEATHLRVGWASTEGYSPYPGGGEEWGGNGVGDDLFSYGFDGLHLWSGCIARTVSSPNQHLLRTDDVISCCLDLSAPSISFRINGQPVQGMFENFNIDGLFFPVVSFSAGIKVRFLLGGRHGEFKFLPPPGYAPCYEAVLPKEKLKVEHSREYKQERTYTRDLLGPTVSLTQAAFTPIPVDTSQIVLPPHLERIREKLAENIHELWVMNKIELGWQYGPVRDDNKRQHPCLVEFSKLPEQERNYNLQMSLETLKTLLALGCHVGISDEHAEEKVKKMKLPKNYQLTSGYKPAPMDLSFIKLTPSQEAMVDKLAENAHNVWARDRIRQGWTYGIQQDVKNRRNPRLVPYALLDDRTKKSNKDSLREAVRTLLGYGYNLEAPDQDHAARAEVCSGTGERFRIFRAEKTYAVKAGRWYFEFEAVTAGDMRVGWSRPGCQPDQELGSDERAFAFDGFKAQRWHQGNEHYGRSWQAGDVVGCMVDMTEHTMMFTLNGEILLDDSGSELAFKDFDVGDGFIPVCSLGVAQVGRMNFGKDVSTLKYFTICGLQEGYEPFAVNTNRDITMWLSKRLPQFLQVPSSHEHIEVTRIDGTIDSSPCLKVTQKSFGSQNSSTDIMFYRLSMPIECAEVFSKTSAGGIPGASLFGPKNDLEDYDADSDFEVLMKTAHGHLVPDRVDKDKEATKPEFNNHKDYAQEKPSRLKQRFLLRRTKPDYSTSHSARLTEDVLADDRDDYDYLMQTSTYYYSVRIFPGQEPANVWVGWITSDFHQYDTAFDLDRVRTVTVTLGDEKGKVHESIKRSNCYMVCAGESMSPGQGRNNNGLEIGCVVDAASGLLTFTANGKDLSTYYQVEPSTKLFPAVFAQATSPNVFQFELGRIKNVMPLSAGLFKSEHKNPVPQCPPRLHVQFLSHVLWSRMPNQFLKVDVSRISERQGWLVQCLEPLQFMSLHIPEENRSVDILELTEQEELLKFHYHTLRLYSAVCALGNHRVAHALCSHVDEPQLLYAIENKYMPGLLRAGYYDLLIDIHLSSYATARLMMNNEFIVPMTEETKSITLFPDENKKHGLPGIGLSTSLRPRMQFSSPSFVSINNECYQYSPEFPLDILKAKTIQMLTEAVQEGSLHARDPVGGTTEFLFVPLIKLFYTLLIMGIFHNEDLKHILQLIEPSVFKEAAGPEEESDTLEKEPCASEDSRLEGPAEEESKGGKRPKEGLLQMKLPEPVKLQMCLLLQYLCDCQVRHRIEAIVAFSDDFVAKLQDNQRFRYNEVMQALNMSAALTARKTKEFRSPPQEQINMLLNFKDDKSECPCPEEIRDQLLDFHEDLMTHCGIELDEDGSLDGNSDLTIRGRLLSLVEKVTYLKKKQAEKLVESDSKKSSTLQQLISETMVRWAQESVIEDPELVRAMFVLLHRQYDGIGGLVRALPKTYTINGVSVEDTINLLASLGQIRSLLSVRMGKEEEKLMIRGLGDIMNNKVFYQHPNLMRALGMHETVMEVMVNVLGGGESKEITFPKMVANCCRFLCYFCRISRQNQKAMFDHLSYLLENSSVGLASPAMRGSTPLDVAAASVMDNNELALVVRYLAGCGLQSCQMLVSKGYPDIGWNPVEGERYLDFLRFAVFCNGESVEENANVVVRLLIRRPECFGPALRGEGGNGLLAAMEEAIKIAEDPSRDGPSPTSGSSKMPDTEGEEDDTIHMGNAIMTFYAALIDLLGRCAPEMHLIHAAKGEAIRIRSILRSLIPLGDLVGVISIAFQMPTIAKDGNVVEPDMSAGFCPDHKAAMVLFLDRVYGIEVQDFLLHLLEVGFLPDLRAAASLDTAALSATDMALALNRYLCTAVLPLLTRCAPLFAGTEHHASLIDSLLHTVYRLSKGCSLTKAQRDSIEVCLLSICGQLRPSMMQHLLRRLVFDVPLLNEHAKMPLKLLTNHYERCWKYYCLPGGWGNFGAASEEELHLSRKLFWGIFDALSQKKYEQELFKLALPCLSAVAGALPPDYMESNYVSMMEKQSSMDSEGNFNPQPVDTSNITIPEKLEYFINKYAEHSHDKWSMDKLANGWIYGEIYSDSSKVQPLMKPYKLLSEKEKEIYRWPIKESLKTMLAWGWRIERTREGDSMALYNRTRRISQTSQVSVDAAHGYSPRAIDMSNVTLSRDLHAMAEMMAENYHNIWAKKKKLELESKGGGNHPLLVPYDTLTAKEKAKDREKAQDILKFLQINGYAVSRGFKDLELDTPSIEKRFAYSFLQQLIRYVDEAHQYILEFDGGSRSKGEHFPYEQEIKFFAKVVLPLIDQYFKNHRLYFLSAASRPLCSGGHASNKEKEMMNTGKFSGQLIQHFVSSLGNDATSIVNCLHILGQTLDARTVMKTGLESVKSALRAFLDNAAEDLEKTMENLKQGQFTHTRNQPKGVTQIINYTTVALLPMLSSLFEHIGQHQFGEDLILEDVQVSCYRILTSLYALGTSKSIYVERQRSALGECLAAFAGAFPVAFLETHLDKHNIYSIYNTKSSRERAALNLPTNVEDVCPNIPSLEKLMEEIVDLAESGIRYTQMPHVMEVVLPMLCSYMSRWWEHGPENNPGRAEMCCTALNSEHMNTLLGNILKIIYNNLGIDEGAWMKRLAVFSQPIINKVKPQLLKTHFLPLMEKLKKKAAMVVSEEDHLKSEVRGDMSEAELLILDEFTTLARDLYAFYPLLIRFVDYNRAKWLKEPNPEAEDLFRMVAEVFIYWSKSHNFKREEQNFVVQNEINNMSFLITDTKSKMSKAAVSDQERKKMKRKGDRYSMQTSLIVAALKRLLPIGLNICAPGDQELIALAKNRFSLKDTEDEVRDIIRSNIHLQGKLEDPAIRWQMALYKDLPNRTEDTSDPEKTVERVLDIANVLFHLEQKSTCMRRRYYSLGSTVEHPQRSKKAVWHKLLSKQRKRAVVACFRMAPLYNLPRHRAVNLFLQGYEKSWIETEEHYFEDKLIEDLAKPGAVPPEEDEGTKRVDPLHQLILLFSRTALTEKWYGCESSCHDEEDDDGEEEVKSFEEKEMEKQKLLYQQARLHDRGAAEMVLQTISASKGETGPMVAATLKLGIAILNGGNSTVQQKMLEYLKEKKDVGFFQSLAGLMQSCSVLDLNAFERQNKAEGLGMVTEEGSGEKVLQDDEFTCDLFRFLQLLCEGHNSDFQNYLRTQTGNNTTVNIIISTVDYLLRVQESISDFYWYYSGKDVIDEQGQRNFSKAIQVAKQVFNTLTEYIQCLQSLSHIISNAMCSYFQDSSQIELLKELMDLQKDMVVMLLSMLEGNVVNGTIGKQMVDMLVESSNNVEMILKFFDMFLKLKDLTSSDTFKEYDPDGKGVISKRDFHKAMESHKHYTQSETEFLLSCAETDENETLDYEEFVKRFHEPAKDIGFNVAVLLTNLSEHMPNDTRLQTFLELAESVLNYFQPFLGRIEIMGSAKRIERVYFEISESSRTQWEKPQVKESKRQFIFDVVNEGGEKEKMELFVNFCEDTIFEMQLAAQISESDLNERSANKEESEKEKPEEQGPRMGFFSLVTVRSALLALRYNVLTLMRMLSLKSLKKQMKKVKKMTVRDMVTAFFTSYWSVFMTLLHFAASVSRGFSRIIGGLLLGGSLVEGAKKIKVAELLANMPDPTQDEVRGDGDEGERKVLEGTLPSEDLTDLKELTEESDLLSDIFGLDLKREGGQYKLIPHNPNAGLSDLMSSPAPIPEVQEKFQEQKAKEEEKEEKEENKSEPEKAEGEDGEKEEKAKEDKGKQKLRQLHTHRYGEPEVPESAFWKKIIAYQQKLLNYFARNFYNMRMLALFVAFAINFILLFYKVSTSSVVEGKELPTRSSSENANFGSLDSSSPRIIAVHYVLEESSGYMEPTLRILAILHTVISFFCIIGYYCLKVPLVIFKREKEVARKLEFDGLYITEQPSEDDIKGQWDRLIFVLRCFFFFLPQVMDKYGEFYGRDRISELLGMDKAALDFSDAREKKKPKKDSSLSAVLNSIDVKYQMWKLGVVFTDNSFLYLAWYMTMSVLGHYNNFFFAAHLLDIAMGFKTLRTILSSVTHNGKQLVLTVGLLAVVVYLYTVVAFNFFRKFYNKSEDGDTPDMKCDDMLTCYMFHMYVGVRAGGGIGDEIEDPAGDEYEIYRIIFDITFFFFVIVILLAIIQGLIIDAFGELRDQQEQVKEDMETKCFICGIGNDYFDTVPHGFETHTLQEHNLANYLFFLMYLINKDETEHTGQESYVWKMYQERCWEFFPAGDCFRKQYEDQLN

## CC(=O)O[C@H]1C[C@@]2(C)[C@@H](C[C@@H](O)[C@H]3[C@@]4(C)CC[C@@H](O)[C@@H](C)[C@@H]4CC[C@@]32C)/C1=C(\CCC=C(C)C)C(=O)O [FA, (2Z)-2-[(3R,4S,5S,8S,9S,10S,11R,13R,14S,16S)-16-acetyloxy-3,11-dihydroxy-4,8,10,14-tetramethyl-2,3,4,5,6,7,9,11,12,13,15,16-dodecahydro-1H-cyclopenta[a]phenanthren-17-ylidene]-6-methylhept-5-enoic acid]
RyR2; [Ca2+] 30 nM, Table S4, read-out: EC50, [3H]ryanodine binding, cardiac SR
  EC50: 1700 nM
RyR2; cardiac SR, 30 μM Ca2+
  effect on [3H]ryanodine binding to RyR2: slight activation at high concentrations
Mouse RyR2 NTR; 0 to 100 μM, CPNQ/corbadrine decrease FLT, FA/tacrolimus increase FLT
  ΔFLT: ≈ 0.1 ns
Mouse RyR2 NTR; read-out: EC50, FRET dose-response, Hill fit, Table S4
  EC50: 3800 nM
